# Columns and labels:
# Format in all cases: in vivo
# Setaria viridis [1] = test: Post-emergence herbicidal action, SETVI; conditions: 80 g/ha, Table C
# How it was run: (§1)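 Herbicidal effect is rated visually as percent versus untreated plants (100% = dead, 0% = like control) about 3 weeks after spraying. Plants were sown in sandy loam in the greenhouse and sprayed on green parts at the one-leaf stage, 2 to 3 weeks post-sowing.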
# Matricaria inodora = test: Pre-emergence herbicidal action, MATIN; conditions: dosage 320 g/ha, scored visually after 3 weeks vs untreated controls
# How it was run: (§2)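 Percent herbicidal activity rated by eye 3 weeks after pre-emergence soil-surface application, compared with untreated pots. Seeds sat under sandy loam; sprays carried 0.2% wetting agent.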
# Stellaria media [2] = test: Post-emergence herbicidal action, STEME; conditions: 80 g/ha, Table D
# How it was run: as §1
# Viola tricolor [3] = test: Pre-emergence herbicidal action, VIOTR; conditions: dosage 320 g/ha, scored visually after 3 weeks vs untreated controls
# How it was run: as §2
# Pharbitis purpureum = test: Post-emergence herbicidal action, PHBPU; conditions: 80 g/ha, Table D
# How it was run: as §1
# Alopecurus myosuroides [4] = test: Post-emergence herbicidal action, ALOMY; conditions: 80 g/ha, Table C
# How it was run: as §1
# Viola tricolor [5] = test: Post-emergence herbicidal action, VIOTR; conditions: 80 g/ha, Table D
# How it was run: as §1
# Avena fatua [6] = test: Pre-emergence herbicidal action, AVEFA; conditions: dosage 320 g/ha, scored visually after 3 weeks vs untreated controls
# How it was run: as §2
# ECHCG = test: Post-emergence herbicidal action, ECHCG; conditions: 80 g/ha, Table C
# How it was run: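 Weed and crop plants grown in sandy loam in the greenhouse, treated at the one-leaf stage 2–3 weeks after sowing. Damage scored visually after about 3 weeks vs untreated controls (0% = control, 100% = dead).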
# Cyperus serotinus = test: Pre-emergence herbicidal action, CYPES; conditions: dosage 320 g/ha, scored visually after 3 weeks vs untreated controls
# How it was run: as §2
# Amaranthus retroflexus [7] = test: Post-emergence herbicidal action, AMARE; conditions: 80 g/ha, Table D
# How it was run: as §1
# Stellaria media [8] = test: Pre-emergence herbicidal action, STEME; conditions: dosage 320 g/ha, scored visually after 3 weeks vs untreated controls
# How it was run: as §2
# Amaranthus retroflexus [9] = test: Pre-emergence herbicidal action, AMARE; conditions: dosage 320 g/ha, scored visually after 3 weeks vs untreated controls
# How it was run: as §2
# Abutilon theophrasti [10] = test: Post-emergence herbicidal action, ABUTH; conditions: 80 g/ha, Table D
# How it was run: as §1
# Setaria viridis [11] = test: Pre-emergence herbicidal action, SETVI; conditions: dosage 320 g/ha, scored visually after 3 weeks vs untreated controls
# How it was run: as §2
# Alopecurus myosuroides [12] = test: Pre-emergence herbicidal action, ALOMY; conditions: dosage 320 g/ha, scored visually after 3 weeks vs untreated controls
# How it was run: as §2
# Avena fatua [13] = test: Post-emergence herbicidal action, AVEFA; conditions: 80 g/ha, Table C
# How it was run: as §1
# Abutilon theophrasti [14] = test: Pre-emergence herbicidal action, ABUTH; conditions: dosage 320 g/ha, scored visually after 3 weeks vs untreated controls
# How it was run: as §2
Compound,herbicidal activity SETVI (Setaria viridis [1]),herbicidal activity MATIN (Matricaria inodora),Herbicidal activity STEME (Stellaria media [2]),herbicidal activity VIOTR (Viola tricolor [3]),Herbicidal activity PHBPU (Pharbitis purpureum),herbicidal activity ALOMY (Alopecurus myosuroides [4]),herbicidal activity VIOTR (Viola tricolor [5]),herbicidal activity AVEFA (Avena fatua [6]),Herbicidal activity ECHCG (ECHCG),herbicidal activity CYPES (Cyperus serotinus),herbicidal activity AMARE (Amaranthus retroflexus [7]),Herbicidal activity STEME (Stellaria media [8]),herbicidal activity AMARE (Amaranthus retroflexus [9]),herbicidal activity ABUTH (Abutilon theophrasti [10]),herbicidal activity SETVI (Setaria viridis [11]),herbicidal activity ALOMY (Alopecurus myosuroides [12]),herbicidal activity AVEFA (Avena fatua [13]),herbicidal activity ABUTH (Abutilon theophrasti [14])
Cn1nnnc1NC(=O)c1ccc(C(F)F)c([S+](C)[O-])c1F (stereo not drawn) [Example 1-38],100%,100%,100%,100%,90%,90%,100%,100%,100%,90%,90%,100%,100%,100%,100%,100%,90%,100%
CCn1nnnc1NC(=O)c1ccc(C(F)F)c([S+]([O-])CC)c1C (stereo not drawn) [Example 2-5],100%,100%,100%,100%,90%,90%,100%,90%,100%,80%,100%,90%,100%,100%,100%,100%,100%,100%
CSc1c(C(F)F)ccc(C(=O)Nc2nnnn2C)c1Br [Example 1-61],90%,100%,100%,100%,100%,90%,100%,100%,90%,100%,90%,100%,100%,100%,100%,100%,100%,100%
Cn1nnnc1NC(=O)c1ccc(C(F)F)c([S+](C)[O-])c1Br (stereo not drawn) [Example 1-62],100%,100%,100%,100%,100%,100%,100%,100%,100%,100%,100%,100%,100%,100%,100%,100%,100%,100%
CSc1c(C(F)F)ccc(C(=O)Nc2nnnn2C)c1C1CC1 [Example 1-25],100%,100%,100%,100%,100%,100%,100%,100%,100%,100%,100%,100%,100%,100%,100%,100%,100%,100%

# Reference: patent US20230183193A1, “4-DIFLUOROMETHYL BENZOYL AMIDES WITH HERBICIDAL ACTION” (BAYER CROPSCIENCE AKTIENGESELLSCHAFT, priority 2017, published 2023)
